The numbers were not newly measured in patent publication US20240024253A1, “Continuous Drug Delivery Systems and Methods” (Pike Therapeutics Inc., priority 2022, published 2024), which cites them from elsewhere.

One data set concerns the target CB2 cannabinoid receptor (Homo sapiens, UniProt P34972). To be noted: CB2 versus CB1.
The target of a further data set is CB1 cannabinoid receptor. As to conditions: parameter not named at the place.

CB2 cannabinoid receptor, sequence (P34972 whole entry): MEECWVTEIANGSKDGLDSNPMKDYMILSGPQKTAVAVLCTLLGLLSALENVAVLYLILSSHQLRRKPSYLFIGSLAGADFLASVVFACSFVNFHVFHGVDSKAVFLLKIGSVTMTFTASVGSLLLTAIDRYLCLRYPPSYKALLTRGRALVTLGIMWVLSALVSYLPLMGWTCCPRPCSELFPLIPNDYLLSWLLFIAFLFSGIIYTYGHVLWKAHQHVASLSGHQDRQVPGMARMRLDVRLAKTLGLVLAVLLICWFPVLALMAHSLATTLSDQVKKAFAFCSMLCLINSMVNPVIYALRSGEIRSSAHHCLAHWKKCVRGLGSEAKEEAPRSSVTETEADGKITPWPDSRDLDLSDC

Take `CCCCCCC(C)(C)c1cc(O)c2c(c1)oc(=O)c1ccc(OC)cc12` [AM-1710]: the “selectivity / binding strength CB2 over CB1” value at CB2 cannabinoid receptor is listed as 54 ×.
As to `CCCn1cc(C(=O)c2ccc(C)c3ccccc23)c2ccccc21` [JWH-120], at CB2 cannabinoid receptor, the “selectivity for CB2 receptor” value is on record as 173 fold.
On to `CCCn1c(C)c(C(=O)c2ccc(C)c3ccccc23)c2ccccc21` [JWH-148], for which, on CB2 cannabinoid receptor, the “selectivity for CB2 over the CB1 subtype” value was “more than 8 times”.
Usually Ki stands for the dissociation constant of the complex between target and ligand, obtained from inhibition or displacement. `CCCCCn1cc(Cc2cccc3ccccc23)c2ccccc21` [JWH-175, (1-pentylindol-3-yl)naphthalen-1-ylmethane]: the inhibition constant Ki at CB1 cannabinoid receptor was 22 nM.
`CCCCCCC(C)(C)c1cc(OC)c2c(c1)OC(C)(C)C1CCC(O)CC21` (stereo not drawn) [JWH-350, 11-nor-1-methoxy-3-(1′,1′-dimethylheptyl)-9α-hydroxyhexahydrocannabinol]: the “selectivity for CB2 receptor” value on CB2 cannabinoid receptor is listed as 33 fold.
